Laboratory results published in patent publication US20260158017A1, “KIF18A INHIBITOR” (WIGEN BIOMEDICINE TECHNOLOGY (SHANGHAI) CO., LTD., priority 2021, published 2026).

Biological target: T1, Recombinant human KIF18A (1-467His-tagged) protein (Homo sapiens, UniProt Q8NI77)
T1 construct: Recombinant human KIF18A (1-467His-tagged) protein; His; made in house
Assay: KIF18A enzyme assay (microtubule-stimulated ATPase activity, ADP-Glo)
Type: biochemical
Conditions: 30 nM KIF18A, 75 μM ATP, 30 μg/mL pig microtubules; read-out: Inhibitory activity against KIF18A IC50
Description: In Vitro Assay of the Compounds of the Present Invention for Inhibiting Enzymatic Activity of KIF18A
KIF18A enzyme assay: The enzymatic activity of KIF18A after treatment with the compounds was measured by an assay of microtubule-stimulated ATPase activity. ADP generated from the ATPase reaction was measured in this assay. The compounds were serially diluted 2-fold in DMSO over a range of 22 concentration points. […] Concentrations of KIF18A protein, microtubules, and ATP in the reaction were optimized for a standardized homogenous enzyme assay using an ADP-Glo kinase/ATPase assay kit. A reaction buffer [(15 mM Tris, pH 7.5), 10 mM MgCl2, 0.01% PluronicF-68, 1 μM paclitaxel, and 30 μg/mL pig microtubules] was prepared. […] The resulting reaction mixture was incubated at room temperature for another 15 min. 5 μL of ADP-Glo reagent and 2.5 μL of the reaction mixture were mixed and the resulting mixture was incubated at room temperature for 40 min. 10 μL of ADP-Glo detection reagent was added and the mixture was incubated at room temperature for 40 min. Luminescence was read using a microplate reader and compared with that of the DMSO group, and then the inhibition percentages and IC50 values of the compounds were calculated.

T1 sequence (Q8NI77 1-467): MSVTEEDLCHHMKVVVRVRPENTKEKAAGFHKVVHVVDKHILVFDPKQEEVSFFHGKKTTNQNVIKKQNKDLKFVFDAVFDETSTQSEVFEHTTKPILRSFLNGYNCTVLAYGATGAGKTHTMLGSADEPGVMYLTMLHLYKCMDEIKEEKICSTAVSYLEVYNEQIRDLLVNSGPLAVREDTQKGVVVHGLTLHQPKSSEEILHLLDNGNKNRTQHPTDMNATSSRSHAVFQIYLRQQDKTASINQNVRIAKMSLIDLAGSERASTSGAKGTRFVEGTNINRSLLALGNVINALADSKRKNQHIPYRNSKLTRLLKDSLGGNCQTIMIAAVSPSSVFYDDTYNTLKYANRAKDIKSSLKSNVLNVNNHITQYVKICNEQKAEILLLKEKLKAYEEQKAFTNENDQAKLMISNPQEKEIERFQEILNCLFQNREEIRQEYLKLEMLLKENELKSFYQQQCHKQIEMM
T1 sequence (P02550 whole entry partner): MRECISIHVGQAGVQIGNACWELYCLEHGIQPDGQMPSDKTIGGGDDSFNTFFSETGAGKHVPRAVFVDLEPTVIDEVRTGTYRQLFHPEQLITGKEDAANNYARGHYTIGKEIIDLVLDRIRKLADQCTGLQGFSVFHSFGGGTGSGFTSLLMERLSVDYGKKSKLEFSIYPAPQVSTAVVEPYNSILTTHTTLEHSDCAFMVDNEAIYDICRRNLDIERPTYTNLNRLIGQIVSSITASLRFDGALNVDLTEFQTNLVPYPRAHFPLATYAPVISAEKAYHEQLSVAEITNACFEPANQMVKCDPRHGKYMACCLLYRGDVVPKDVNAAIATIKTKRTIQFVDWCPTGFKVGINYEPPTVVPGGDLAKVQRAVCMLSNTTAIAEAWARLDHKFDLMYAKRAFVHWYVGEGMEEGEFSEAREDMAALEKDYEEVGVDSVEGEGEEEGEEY
T1 sequence (P02554 whole entry partner): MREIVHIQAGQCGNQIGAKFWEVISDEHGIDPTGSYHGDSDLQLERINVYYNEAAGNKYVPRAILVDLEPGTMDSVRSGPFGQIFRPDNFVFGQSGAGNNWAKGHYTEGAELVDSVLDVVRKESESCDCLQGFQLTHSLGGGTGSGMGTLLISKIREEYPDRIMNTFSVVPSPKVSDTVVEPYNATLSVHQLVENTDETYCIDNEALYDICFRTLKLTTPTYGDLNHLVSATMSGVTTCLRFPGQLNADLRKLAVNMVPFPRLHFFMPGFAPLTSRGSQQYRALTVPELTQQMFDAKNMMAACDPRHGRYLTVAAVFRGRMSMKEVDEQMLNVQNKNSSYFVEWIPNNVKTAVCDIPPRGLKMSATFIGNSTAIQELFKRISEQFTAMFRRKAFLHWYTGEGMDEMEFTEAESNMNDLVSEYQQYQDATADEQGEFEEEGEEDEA

IC50 [nM]	SMILES
≤ 100	C[C@@H]1CN(c2cc(NC(=O)c3ccc(NS(=O)(=O)CCO)cc3N3CCC4(CC3)CC4)ccc2[N+](=O)[O-])CCO1 [Compound 2]
≤ 100	O=C(Nc1ccc([N+](=O)[O-])c(OCCC(F)(F)F)c1)c1ccc(NS(=O)(=O)CCO)cc1N1CCC2(CC1)CC2 [Compound 5]
≤ 100	CC1(F)CCN(c2cc(NC(=O)c3ccc(NS(=O)(=O)CCO)cc3N3CCC4(CC3)CC4)ccc2[N+](=O)[O-])C1 (stereo not shown) [Compound 8]
≤ 100	O=C(Nc1ccc([N+](=O)[O-])c(N2CCC(F)CC2)c1)c1ccc(NS(=O)(=O)CCO)cc1N1CCC2(CC1)CC2 [Compound 9]
≤ 100	O=C(Nc1ccc([N+](=O)[O-])c(N2CC3CC3C2)c1)c1ccc(NS(=O)(=O)CCO)cc1N1CCC2(CC1)CC2 (stereo not shown) [Compound 10]
≤ 100	CC(C)(CO)Nc1cc(NC(=O)c2ccc(NS(=O)(=O)CCO)cc2N2CCC3(CC2)CC3)ccc1[N+](=O)[O-] [Compound 11]
≤ 100	O=C(Nc1ccc([N+](=O)[O-])c(N2CCOCC2)c1)c1ccc(NS(=O)(=O)CCO)cc1N1CCC2(CC1)CC2 [Compound 12]
≤ 100	C[C@@H](CO)S(=O)(=O)Nc1ccc(C(=O)Nc2ccc([N+](=O)[O-])c(N3CCC(F)(F)CC3)c2)c(N2CCC3(CC2)CC3)c1 [Compound 13]
≤ 100	C[C@H](CO)S(=O)(=O)Nc1ccc(C(=O)Nc2ccc([N+](=O)[O-])c(N3CCC(F)(F)CC3)c2)c(N2CCC3(CC2)CC3)c1 [Compound 14]
≤ 100	C[C@@H]1CN(c2cc(NC(=O)c3ccc(NS(=O)(=O)[C@@H](C)CO)cc3N3CCC4(CC3)CC4)ccc2[N+](=O)[O-])CCO1 [Compound 15]
≤ 100	C[C@@H]1CN(c2cc(NC(=O)c3ccc(NS(=O)(=O)[C@H](C)CO)cc3N3CCC4(CC3)CC4)ccc2[N+](=O)[O-])CCO1 [Compound 16]
≤ 100	O=C(Nc1ccc([N+](=O)[O-])c(N2CCC(F)(F)CC2)c1)c1ccc(S(=O)(=O)NCCO)cc1N1CCC2(CC1)CC2 [Compound 17]
≤ 100	C[C@@H]1CN(c2cc(NC(=O)c3ccc(S(=O)(=O)NCCO)cc3N3CCC4(CC3)CC4)ccc2[N+](=O)[O-])CCO1 [Compound 18]
≤ 100	C[C@H]1CN(c2cc(NC(=O)c3ccc(S(=O)(=O)NCCO)cc3N3CCC4(CC3)CC4)ccc2[N+](=O)[O-])CCO1 [Compound 19]
≤ 100	O=C(Nc1ccc([N+](=O)[O-])c(N2CC(F)(F)C2)c1)c1ccc(S(=O)(=O)NCCO)cc1N1CCC2(CC1)CC2 [Compound 20]
≤ 100	O=C(Nc1ccc([N+](=O)[O-])c(OCCC(F)(F)F)c1)c1ccc(S(=O)(=O)NCCO)cc1N1CCC2(CC1)CC2 [Compound 21]
≤ 100	O=C(Nc1ccc([N+](=O)[O-])c(N2CCC3(CC3)C2)c1)c1ccc(S(=O)(=O)NCCO)cc1N1CCC2(CC1)CC2 [Compound 22]
≤ 100	O=C(Nc1ccc([N+](=O)[O-])c(OC2CCC2)c1)c1ccc(S(=O)(=O)NCCO)cc1N1CCC2(CC1)CC2 [Compound 23]
≤ 100	CC1(F)CCN(c2cc(NC(=O)c3ccc(S(=O)(=O)NCCO)cc3N3CCC4(CC3)CC4)ccc2[N+](=O)[O-])C1 (stereo not shown) [Compound 24]
≤ 100	O=C(Nc1ccc([N+](=O)[O-])c(N2CCC(F)CC2)c1)c1ccc(S(=O)(=O)NCCO)cc1N1CCC2(CC1)CC2 [Compound 25]
≤ 100	O=C(Nc1ccc([N+](=O)[O-])c(N2CC3CC3C2)c1)c1ccc(S(=O)(=O)NCCO)cc1N1CCC2(CC1)CC2 (stereo not shown) [Compound 26]
≤ 100	CC(C)(CO)Nc1cc(NC(=O)c2ccc(S(=O)(=O)NCCO)cc2N2CCC3(CC2)CC3)ccc1[N+](=O)[O-] [Compound 27]
≤ 100	O=C(Nc1ccc([N+](=O)[O-])c(N2CCOCC2)c1)c1ccc(S(=O)(=O)NCCO)cc1N1CCC2(CC1)CC2 [Compound 28]
≤ 100	C[C@@H](CO)NS(=O)(=O)c1ccc(C(=O)Nc2ccc([N+](=O)[O-])c(N3CCC(F)(F)CC3)c2)c(N2CCC3(CC2)CC3)c1 [Compound 29]
≤ 100	C[C@H](CO)NS(=O)(=O)c1ccc(C(=O)Nc2ccc([N+](=O)[O-])c(N3CCC(F)(F)CC3)c2)c(N2CCC3(CC2)CC3)c1 [Compound 30]
≤ 100	C[C@@H]1CN(c2cc(NC(=O)c3ccc(S(=O)(=O)N[C@@H](C)CO)cc3N3CCC4(CC3)CC4)ccc2[N+](=O)[O-])CCO1 [Compound 31]
≤ 100	C[C@H](CO)NS(=O)(=O)c1ccc(C(=O)Nc2ccc([N+](=O)[O-])c(N3CCO[C@H](C)C3)c2)c(N2CCC3(CC2)CC3)c1 [Compound 32]
≤ 100	O=C(Nc1ccc(NS(=O)(=O)CCO)cc1N1CCC2(CC1)CC2)c1ccc([N+](=O)[O-])c(N2CCC(F)(F)CC2)c1 [Compound 33]

IC50 [nM]	SMILES
≤ 100	C[C@@H]1CN(c2cc(C(=O)Nc3ccc(NS(=O)(=O)CCO)cc3N3CCC4(CC3)CC4)ccc2[N+](=O)[O-])CCO1 [Compound 34]
100 to 500	C[C@H]1CN(c2cc(C(=O)Nc3ccc(NS(=O)(=O)CCO)cc3N3CCC4(CC3)CC4)ccc2[N+](=O)[O-])CCO1 [Compound 35]
≤ 100	O=C(Nc1ccc(NS(=O)(=O)CCO)cc1N1CCC2(CC1)CC2)c1ccc([N+](=O)[O-])c(N2CC(F)(F)C2)c1 [Compound 36]
≤ 100	O=C(Nc1ccc(NS(=O)(=O)CCO)cc1N1CCC2(CC1)CC2)c1ccc([N+](=O)[O-])c(OCCC(F)(F)F)c1 [Compound 37]
≤ 100	O=C(Nc1ccc(NS(=O)(=O)CCO)cc1N1CCC2(CC1)CC2)c1ccc([N+](=O)[O-])c(N2CCC3(CC3)C2)c1 [Compound 38]
≤ 100	O=C(Nc1ccc(NS(=O)(=O)CCO)cc1N1CCC2(CC1)CC2)c1ccc([N+](=O)[O-])c(OC2CCC2)c1 [Compound 39]
≤ 100	CC1(F)CCN(c2cc(C(=O)Nc3ccc(NS(=O)(=O)CCO)cc3N3CCC4(CC3)CC4)ccc2[N+](=O)[O-])C1 (stereo not shown) [Compound 40]
≤ 100	O=C(Nc1ccc(NS(=O)(=O)CCO)cc1N1CCC2(CC1)CC2)c1ccc([N+](=O)[O-])c(N2CCC(F)CC2)c1 [Compound 41]
≤ 100	O=C(Nc1ccc(NS(=O)(=O)CCO)cc1N1CCC2(CC1)CC2)c1ccc([N+](=O)[O-])c(N2CC3CC3C2)c1 (stereo not shown) [Compound 42]
≤ 100	CC(C)(CO)Nc1cc(C(=O)Nc2ccc(NS(=O)(=O)CCO)cc2N2CCC3(CC2)CC3)ccc1[N+](=O)[O-] [Compound 43]
≤ 100	O=C(Nc1ccc(NS(=O)(=O)CCO)cc1N1CCC2(CC1)CC2)c1ccc([N+](=O)[O-])c(N2CCOCC2)c1 [Compound 44]
100 to 500	C[C@@H](CO)S(=O)(=O)Nc1ccc(NC(=O)c2ccc([N+](=O)[O-])c(N3CCC(F)(F)CC3)c2)c(N2CCC3(CC2)CC3)c1 [Compound 45]
100 to 500	C[C@H](CO)S(=O)(=O)Nc1ccc(NC(=O)c2ccc([N+](=O)[O-])c(N3CCC(F)(F)CC3)c2)c(N2CCC3(CC2)CC3)c1 [Compound 46]
100 to 500	C[C@@H]1CN(c2cc(C(=O)Nc3ccc(NS(=O)(=O)[C@@H](C)CO)cc3N3CCC4(CC3)CC4)ccc2[N+](=O)[O-])CCO1 [Compound 47]
100 to 500	C[C@@H]1CN(c2cc(C(=O)Nc3ccc(NS(=O)(=O)[C@H](C)CO)cc3N3CCC4(CC3)CC4)ccc2[N+](=O)[O-])CCO1 [Compound 48]
100 to 500	O=C(Nc1ccc(S(=O)(=O)NCCO)cc1N1CCC2(CC1)CC2)c1ccc([N+](=O)[O-])c(N2CCC(F)(F)CC2)c1 [Compound 49]
100 to 500	C[C@@H]1CN(c2cc(C(=O)Nc3ccc(S(=O)(=O)NCCO)cc3N3CCC4(CC3)CC4)ccc2[N+](=O)[O-])CCO1 [Compound 50]
100 to 500	C[C@H]1CN(c2cc(C(=O)Nc3ccc(S(=O)(=O)NCCO)cc3N3CCC4(CC3)CC4)ccc2[N+](=O)[O-])CCO1 [Compound 51]
100 to 500	O=C(Nc1ccc(S(=O)(=O)NCCO)cc1N1CCC2(CC1)CC2)c1ccc([N+](=O)[O-])c(N2CC(F)(F)C2)c1 [Compound 52]
100 to 500	O=C(Nc1ccc(S(=O)(=O)NCCO)cc1N1CCC2(CC1)CC2)c1ccc([N+](=O)[O-])c(OCCC(F)(F)F)c1 [Compound 53]
100 to 500	O=C(Nc1ccc(S(=O)(=O)NCCO)cc1N1CCC2(CC1)CC2)c1ccc([N+](=O)[O-])c(N2CCC3(CC3)C2)c1 [Compound 54]
100 to 500	O=C(Nc1ccc(S(=O)(=O)NCCO)cc1N1CCC2(CC1)CC2)c1ccc([N+](=O)[O-])c(OC2CCC2)c1 [Compound 55]
100 to 500	CC1(F)CCN(c2cc(C(=O)Nc3ccc(S(=O)(=O)NCCO)cc3N3CCC4(CC3)CC4)ccc2[N+](=O)[O-])C1 (stereo not shown) [Compound 56]
100 to 500	O=C(Nc1ccc(S(=O)(=O)NCCO)cc1N1CCC2(CC1)CC2)c1ccc([N+](=O)[O-])c(N2CCC(F)CC2)c1 [Compound 57]
100 to 500	O=C(Nc1ccc(S(=O)(=O)NCCO)cc1N1CCC2(CC1)CC2)c1ccc([N+](=O)[O-])c(N2CC3CC3C2)c1 (stereo not shown) [Compound 58]
100 to 500	CC(C)(CO)Nc1cc(C(=O)Nc2ccc(S(=O)(=O)NCCO)cc2N2CCC3(CC2)CC3)ccc1[N+](=O)[O-] [Compound 59]
100 to 500	O=C(Nc1ccc(S(=O)(=O)NCCO)cc1N1CCC2(CC1)CC2)c1ccc([N+](=O)[O-])c(N2CCOCC2)c1 [Compound 60]
